Experimental data published in US10597388B2, “Pyridazinone herbicides” (FMC CORPORATION, priority 2014, dated 2020).

Experiments:
Type in all cases: in vivo
[1] = test system: corn (Zea mays); test: Test A greenhouse herbicide test, pre- and postemergence; settings: Postemergence; for Plant response rating, Corn: 125 g ai/ha, 0 to 100 scale where 0 is no effect and 100 is complete control; for Corn plant response rating: 500 g ai/ha, 0 to 100 scale, 0 is no effect, 100 is complete control
Outline: (§1)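 Visual injury ratings, 0 (no effect) to 100 (complete control), versus untreated plants after roughly 10 d in a greenhouse. Compounds, formulated in a surfactant-containing non-phytotoxic solvent, were sprayed on loam–sand soil after sowing (pre) or on one- to two-leaf plants 2–10 cm tall (post).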

[2] = test system: foxtail, giant (giant foxtail, Setaria faberii); test: as above
Outline: as §1

[3] = test system: kochia (Kochia scoparia); test: as above
Outline: as §1

[4] = test system: pigweed (Amaranthus retroflexus); test: as above
Outline: as §1

[5] = test system: ragweed (common ragweed, Ambrosia elatior); test: as above
Outline: as §1

[6] = test system: ryegrass, Italian (Italian ryegrass, Lolium multiflorum); test: as above
Outline: as §1

[7] = test system: wheat (Triticum aestivum); test: as above; settings: Postemergence; for Plant response rating, Wheat: 125 g ai/ha, 0 to 100 scale where 0 is no effect and 100 is complete control; for Wheat plant response rating: 500 g ai/ha, 0 to 100 scale, 0 is no effect, 100 is complete control
Outline: as §1

[8] = test system: galium (catchweed bedstraw, Galium aparine); test: Test C greenhouse herbicide test, pre- and postemergence
Outline: (§2)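 Visual 0–100 injury score (100 = complete control) taken against untreated controls after 13–15 d in greenhouse. Test chemicals, formulated in solvent plus surfactant, applied preemergence to seeds in loam–sand soil or postemergence to 1- to 4-leaf plants (2–18 cm).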

[9] = test system: nutsedge, yellow (yellow nutsedge, Cyperus esculentus); test: as above
Outline: as §2

[10] = test system: oilseed rape (Brassica napus); test: as above
Outline: as §2

[11] = test system: velvetleaf (Abutilon theophrasti); test: as above
Outline: as §2

[12] = Postemergence, 125 g ai/ha, 0 to 100 scale where 0 is no effect and 100 is complete control
[13] = Postemergence, 500 g ai/ha, 0 to 100 scale, 0 is no effect, 100 is complete control
[14] = Preemergence, 125 g ai/ha, 0 to 100 scale where 0 is no effect and 100 is complete control
[15] = Preemergence, 500 g ai/ha, 0 to 100 scale where 0 is no effect and 100 is complete control
[16] = Postemergence, 125 g ai/ha, scale 0 to 100, 0 is no effect, 100 is complete control
[17] = Postemergence, 250 g ai/ha, scale 0 to 100, 0 no effect, 100 complete control, 13 to 15 d
[18] = Preemergence, 31 g ai/ha, scale 0 to 100, 0 is no effect, 100 is complete control
[19] = Preemergence, 62 g ai/ha, scale 0 to 100, 0 is no effect, 100 is complete control
[20] = Preemergence, 125 g ai/ha, scale 0 to 100, 0 is no effect, 100 is complete control
[21] = Preemergence, 250 g ai/ha, scale 0 to 100 (0 no effect, 100 complete control)
[22] = postemergence, 62 g ai/ha, scale 0 to 100, 0 no effect, 100 complete control

## COC(=O)Oc1c(C)nn(C)c(=O)c1-c1c(C)sc2c(C)cc(C)cc12 [Compound 81]
[1]
  Plant response rating, Corn: 0
  Corn plant response rating: 0
[2]; [12]
  Plant response rating, Foxtail, Giant: 90
[2]; [13]
  Foxtail, Giant plant response rating: 100
[2]; [14]
  Foxtail, Giant plant response rating: 100
[2]; [15]
  Plant response rating, Foxtail, Giant: 100
[3]; [12]
  Plant response rating, Kochia: 60
[3]; [13]
  Kochia plant response rating: 100
[3]; [14]
  Kochia plant response rating: 30
[3]; [15]
  Plant response rating, Kochia: 100
[4]; [12]
  Plant response rating, Pigweed: 100
[4]; [13]
  Pigweed plant response rating: 100
[4]; [14]
  Pigweed plant response rating: 100
[4]; [15]
  Plant response rating, Pigweed: 100
[5]; [12]
  Plant response rating, Ragweed: 90
[5]; [13]
  Ragweed plant response rating: 100
[5]; [14]
  Ragweed plant response rating: 90
[5]; [15]
  Plant response rating, Ragweed: 100
[6]; [12]
  Plant response rating, Ryegrass, Italian: 100
[6]; [13]
  Ryegrass, Italian plant response rating: 100
[6]; [14]
  Ryegrass, Italian plant response rating: 100
[6]; [15]
  Plant response rating, Ryegrass, Italian: 100
[7]
  Plant response rating, Wheat: 0
  Wheat plant response rating: 0
[8]; [16]
  Plant response rating, Galium: 95
[8]; [17]
  Plant response rating, Galium: 95
[8]; [18]
  Plant response rating, Galium: 90
[8]; [19]
  Plant response rating, Galium: 95
[8]; [20]
  Plant response rating, Galium: 95
[8]; [21]
  Galium plant response rating: 95
[8]; [22]
  Galium plant response rating: 95
[9]; [16]
  Plant response rating, Nutsedge, Yellow: 90
[9]; [17]
  Plant response rating, Nutsedge, Yellow: 90
[9]; [18]
  Plant response rating, Nutsedge, Yellow: 60
[9]; [19]
  Plant response rating, Nutsedge, Yellow: 70
[9]; [20]
  Plant response rating, Nutsedge, Yellow: 80
[9]; [21]
  Nutsedge, Yellow plant response rating: 95
[9]; [22]
  Nutsedge, Yellow plant response rating: 85
[10]; [16]
  Plant response rating, Oilseed Rape: 85
[10]; [17]
  Plant response rating, Oilseed Rape: 45
[10]; [18]
  Plant response rating, Oilseed Rape: 0
[10]; [19]
  Plant response rating, Oilseed Rape: 5
[10]; [20]
  Plant response rating, Oilseed Rape: 40
[10]; [21]
  Oilseed Rape plant response rating: 95
[10]; [22]
  Oilseed Rape plant response rating: 65
[11]; [16]
  Plant response rating, Velvetleaf: 90
[11]; [17]
  Plant response rating, Velvetleaf: 90
[11]; [18]
  Plant response rating, Velvetleaf: 35
[11]; [19]
  Plant response rating, Velvetleaf: 65
[11]; [20]
  Plant response rating, Velvetleaf: 85
[11]; [21]
  Velvetleaf plant response rating: 98
[11]; [22]
  Velvetleaf plant response rating: 85

## CCOC(=O)Oc1c(C)nn(C)c(=O)c1-c1c(C)sc2ccc(C)cc12 [Compound 82]
[1]
  Plant response rating, Corn: 0
  Corn plant response rating: 0
[2]; [12]
  Plant response rating, Foxtail, Giant: 50
[2]; [13]
  Foxtail, Giant plant response rating: 70
[2]; [14]
  Foxtail, Giant plant response rating: 70
[2]; [15]
  Plant response rating, Foxtail, Giant: 90
[3]; [12]
  Plant response rating, Kochia: 30
[3]; [13]
  Kochia plant response rating: 80
[3]; [14]
  Kochia plant response rating: 70
[3]; [15]
  Plant response rating, Kochia: 90
[4]; [12]
  Plant response rating, Pigweed: 60
[4]; [13]
  Pigweed plant response rating: 80
[4]; [14]
  Pigweed plant response rating: 100
[4]; [15]
  Plant response rating, Pigweed: 100
[5]; [12]
  Plant response rating, Ragweed: 70
[5]; [13]
  Ragweed plant response rating: 70
[5]; [14]
  Ragweed plant response rating: 80
[5]; [15]
  Plant response rating, Ragweed: 80
[6]; [12]
  Plant response rating, Ryegrass, Italian: 70
[6]; [13]
  Ryegrass, Italian plant response rating: 80
[6]; [14]
  Ryegrass, Italian plant response rating: 80
[6]; [15]
  Plant response rating, Ryegrass, Italian: 90
[7]
  Plant response rating, Wheat: 0
  Wheat plant response rating: 0
[8]; [16]
  Plant response rating, Galium: 95
[8]; [17]
  Plant response rating, Galium: 95
[8]; [18]
  Plant response rating, Galium: 90
[8]; [19]
  Plant response rating, Galium: 90
[8]; [20]
  Plant response rating, Galium: 90
[8]; [21]
  Galium plant response rating: 95
[8]; [22]
  Galium plant response rating: 95
[9]; [16]
  Plant response rating, Nutsedge, Yellow: 85
[9]; [17]
  Plant response rating, Nutsedge, Yellow: 85
[9]; [18]
  Plant response rating, Nutsedge, Yellow: 35
[9]; [19]
  Plant response rating, Nutsedge, Yellow: 60
[9]; [20]
  Plant response rating, Nutsedge, Yellow: 60
[9]; [21]
  Nutsedge, Yellow plant response rating: 90
[9]; [22]
  Nutsedge, Yellow plant response rating: 80
[10]; [16]
  Plant response rating, Oilseed Rape: 50
[10]; [17]
  Plant response rating, Oilseed Rape: 75
[10]; [18]
  Plant response rating, Oilseed Rape: 0
[10]; [19]
  Plant response rating, Oilseed Rape: 0
[10]; [20]
  Plant response rating, Oilseed Rape: 0
[10]; [21]
  Oilseed Rape plant response rating: 85
[10]; [22]
  Oilseed Rape plant response rating: 40
[11]; [16]
  Plant response rating, Velvetleaf: 95
[11]; [17]
  Plant response rating, Velvetleaf: 90
[11]; [18]
  Plant response rating, Velvetleaf: 65
[11]; [19]
  Plant response rating, Velvetleaf: 80
[11]; [20]
  Plant response rating, Velvetleaf: 85
[11]; [21]
  Velvetleaf plant response rating: 90
[11]; [22]
  Velvetleaf plant response rating: 80

## CCOC(=O)Oc1c(C)nn(C)c(=O)c1-c1c(C)sc2c(C)cc(C)cc12 [Compound 83]
[1]
  Plant response rating, Corn: 0
  Corn plant response rating: 0
[2]; [12]
  Plant response rating, Foxtail, Giant: 90
[2]; [13]
  Foxtail, Giant plant response rating: 100
[2]; [14]
  Foxtail, Giant plant response rating: 100
[2]; [15]
  Plant response rating, Foxtail, Giant: 100
[3]; [12]
  Plant response rating, Kochia: 70
[3]; [13]
  Kochia plant response rating: 100
[3]; [14]
  Kochia plant response rating: 30
[3]; [15]
  Plant response rating, Kochia: 100
[4]; [12]
  Plant response rating, Pigweed: 100
[4]; [13]
  Pigweed plant response rating: 100
[4]; [14]
  Pigweed plant response rating: 100
[4]; [15]
  Plant response rating, Pigweed: 100
[5]; [12]
  Plant response rating, Ragweed: 90
[5]; [13]
  Ragweed plant response rating: 100
[5]; [14]
  Ragweed plant response rating: 90
[5]; [15]
  Plant response rating, Ragweed: 100
[6]; [12]
  Plant response rating, Ryegrass, Italian: 90
[6]; [13]
  Ryegrass, Italian plant response rating: 100
[6]; [14]
  Ryegrass, Italian plant response rating: 100
[6]; [15]
  Plant response rating, Ryegrass, Italian: 100
[7]
  Plant response rating, Wheat: 0
  Wheat plant response rating: 20
[8]; [16]
  Plant response rating, Galium: 100
[8]; [17]
  Plant response rating, Galium: 100
[8]; [18]
  Plant response rating, Galium: 90
[8]; [19]
  Plant response rating, Galium: 90
[8]; [20]
  Plant response rating, Galium: 95
[8]; [21]
  Galium plant response rating: 95
[8]; [22]
  Galium plant response rating: 90
[9]; [16]
  Plant response rating, Nutsedge, Yellow: 85
[9]; [17]
  Plant response rating, Nutsedge, Yellow: 90
[9]; [18]
  Plant response rating, Nutsedge, Yellow: 85
[9]; [19]
  Plant response rating, Nutsedge, Yellow: 90
[9]; [20]
  Plant response rating, Nutsedge, Yellow: 85
[9]; [21]
  Nutsedge, Yellow plant response rating: 95
[9]; [22]
  Nutsedge, Yellow plant response rating: 80
[10]; [16]
  Plant response rating, Oilseed Rape: 45
[10]; [17]
  Plant response rating, Oilseed Rape: 70
[10]; [18]
  Plant response rating, Oilseed Rape: 0
[10]; [19]
  Plant response rating, Oilseed Rape: 0
[10]; [20]
  Plant response rating, Oilseed Rape: 50
[10]; [21]
  Oilseed Rape plant response rating: 50
[10]; [22]
  Oilseed Rape plant response rating: 0
[11]; [16]
  Plant response rating, Velvetleaf: 90
[11]; [17]
  Plant response rating, Velvetleaf: 90
[11]; [18]
  Plant response rating, Velvetleaf: 35
[11]; [19]
  Plant response rating, Velvetleaf: 70
[11]; [20]
  Plant response rating, Velvetleaf: 85
[11]; [21]
  Velvetleaf plant response rating: 90
[11]; [22]
  Velvetleaf plant response rating: 90
